From ChEMBL document CHEMBL5506017, “Brain-Permeable Immunoproteasome-Targeting Macrocyclic Peptide Epoxyketones for Alzheimer's Disease” (J Med Chem, 2024)
Calls of active or inactive are those of the source. The rule behind the calls is not given here.

Experiments:
[1] = Toxicity in BALB/c mouse assessed as diarrhea at 40 mg/kg, iv; type: organism-based; conditions: in vivo
[2] = Efflux ratio of apparent permeability across basolateral to apical side over apical to basolateral side in human Caco-2 cells expressing Pgp/BCRP at 10 uM incubated for 120 mins by LC-MS/MS analysis; type: ADME, cell-based; conditions: caco-2, 2 h
[3] = Apparent permeability of the compound across apical to basolateral side in human Caco-2 cells expressing Pgp/BCRP at 10 uM incubated for 120 mins by LC-MS/MS analysis; type: ADME, cell-based; conditions: caco-2, 2 h
[4] = test system: ARPE-19; assay: Cytotoxicity against human ARPE-19 cells assessed as reduction in cell viability at 30 to 100 uM incubated for 96 hrs by CellTiter 96 Aqueous One Solution Cell Proliferation Assay; type: toxicity, cell-based; conditions: arpe-19, 96 h, dose 30-100 µM
[5] = In vivo inhibition of LMP2 activity in BALB/c mouse brain at 100 mg/kg, iv measured after 24 hrs relative to control; type: functional
[6] = Unbound clearance in human plasma; type: ADME, cell-free
[7] = Toxicity in BALB/c mouse assessed as effect on weight loss at 100 mg/kg, po; type: organism-based; conditions: in vivo
[8] = Toxicity in BALB/c mouse at 100 mg/kg, iv measured for 72 hrs; type: organism-based; conditions: in vivo
[9] = Protein binding in human plasma assessed as unbound fraction; type: ADME, cell-free
[10] = Volume of distribution at steady state in BALB/c mouse at 40 mg/kg, iv measured upto 1440 mins by LC-MS/MS analysis; type: ADME, organism-based; conditions: in vivo, 24 h
[11] = AUC infinity in BALB/c mouse at 40 mg/kg, iv measured upto 1440 mins by LC-MS/MS analysis; type: ADME, organism-based; conditions: in vivo, 24 h
[12] = C0 in BALB/c mouse at 40 mg/kg, iv measured upto 1440 mins by LC-MS/MS analysis; type: ADME, organism-based; conditions: in vivo, 24 h
[13] = Metabolic stability in human liver microsomes assessed as half life at 2 uM measured upto 60 mins by LC-MS/MS analysis; type: ADME, Microsome; conditions: 1 h
[14] = Mutagenicity in Salmonella typhimurium TA98 at 0.01 to 100 uM incubated for 90 mins in presence of liver S9 fraction by AMES test; type: toxicity, subcellular; conditions: salmonella enterica subsp. enterica serovar typhimurium, s9, 1.5 h, dose 0.01-100 µM
[15] = Toxicity in BALB/c mouse assessed as paralysis at 40 mg/kg, iv; type: organism-based; conditions: in vivo
[16] = Cmax in BALB/c mouse at 150 mg/kg, po measured after 15 to 360 mins by LC-MS/MS analysis; type: ADME, organism-based; conditions: in vivo, time 15-360 min
[17] = Half life in BALB/c mouse at 40 mg/kg, iv measured upto 1440 mins by LC-MS/MS analysis; type: ADME, organism-based; conditions: in vivo, 24 h
[18] = Clearance in BALB/c mouse at 40 mg/kg, iv measured upto 1440 mins by LC-MS/MS analysis; type: ADME, organism-based; conditions: in vivo, 24 h
[19] = Cytotoxicity against human HMC3 cells assessed as reduction in cell viability incubated for 96 hrs by CellTiter 96 Aqueous One Solution Cell Proliferation Assay; type: toxicity, cell-based
[20] = Toxicity in BALB/c mouse assessed as paralysis at 100 mg/kg, po; type: organism-based; conditions: in vivo
[21] = biological target: T1, Proteasome subunit beta type-9 (Mus musculus) (UniProt P28076); assay: Inhibition of LMP2 in mouse BV-2 cells using Ac-PAL-AMC as substrate at 0.3 to 1 uM measured after 24 hrs by fluorescence based SpectraMax M5e plate reader; type: cell-based; conditions: dose 0.3-1 µM
T1 sequence (whole entry): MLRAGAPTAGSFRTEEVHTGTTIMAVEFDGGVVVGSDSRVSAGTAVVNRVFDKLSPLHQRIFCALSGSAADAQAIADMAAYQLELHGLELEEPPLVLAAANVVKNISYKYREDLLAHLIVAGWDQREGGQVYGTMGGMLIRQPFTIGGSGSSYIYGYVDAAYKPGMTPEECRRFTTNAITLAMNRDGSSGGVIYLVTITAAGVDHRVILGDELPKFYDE

[22] = biological target: T2, Proteasome subunit beta type-9 (Homo sapiens, UniProt P28065); assay: Inhibition of human LMP2 using Ac-PAL-AMC as substrate incubated for 1 hr by fluorescence based SpectraMax M5e plate reader
T2 sequence (P28065 whole entry): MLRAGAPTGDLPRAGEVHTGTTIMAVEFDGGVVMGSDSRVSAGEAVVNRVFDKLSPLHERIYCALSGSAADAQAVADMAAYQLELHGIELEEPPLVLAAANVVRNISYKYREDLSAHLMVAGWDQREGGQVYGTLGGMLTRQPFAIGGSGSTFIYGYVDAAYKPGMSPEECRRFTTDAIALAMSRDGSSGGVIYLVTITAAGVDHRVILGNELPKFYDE

[23] = Oral bioavailability in BALB/c mouse at 150 mg/kg measured after 15 to 360 mins by LC-MS/MS analysis; type: ADME, organism-based; conditions: in vivo, time 15-360 min
[24] = Drug uptake in BALB/c mouse spleen at 40 mg/kg, iv measured after 2 hrs; type: ADME, organism-based; conditions: in vivo
[25] = Toxicity in BALB/c mouse assessed as effect on weight loss at 40 mg/kg, iv; type: organism-based; conditions: in vivo
[26] = In vivo inhibition of LMP2 activity in BALB/c mouse blood at 150 mg/kg, po measured after 6 hrs post dose relative to control; type: functional
[27] = In vivo inhibition of LMP2 activity in BALB/c mouse blood at 40 mg/kg, iv measured after 2 hrs relative to control; type: functional
[28] = AUC (0 to last) in BALB/c mouse at 150 mg/kg, po measured after 15 to 360 mins by LC-MS/MS analysis; type: ADME, organism-based; conditions: in vivo, time 15-360 min
[29] = Apparent permeability of the compound across basal to apical side in human Caco-2 cells expressing Pgp/BCRP at 10 uM incubated for 120 mins by LC-MS/MS analysis; type: ADME, cell-based; conditions: caco-2, 2 h
[30] = Mutagenicity in Salmonella typhimurium TA100 at 0.01 to 100 uM incubated for 90 mins in absence of liver S9 fraction by AMES test; type: toxicity; conditions: salmonella enterica subsp. enterica serovar typhimurium, s9, 1.5 h, dose 0.01-100 µM
[31] = Drug uptake in BALB/c mouse lung at 40 mg/kg, iv measured after 2 hrs; type: ADME, organism-based; conditions: in vivo
[32] = Mutagenicity in Salmonella typhimurium TA100 at 0.01 to 100 uM incubated for 90 mins in presence of liver S9 fraction by AMES test; type: toxicity, subcellular; conditions: salmonella enterica subsp. enterica serovar typhimurium, s9, 1.5 h, dose 0.01-100 µM
[33] = Cmax in BALB/c mouse at 40 mg/kg, iv measured upto 1440 mins by LC-MS/MS analysis; type: ADME, organism-based; conditions: in vivo, 24 h
[34] = Tmax in BALB/c mouse plasma at 40 mg/kg, iv measured upto 1440 mins by LC-MS/MS analysis; type: ADME, organism-based
[35] = In vivo inhibition of LMP2 activity in BALB/c mouse brain at 150 mg/kg, po measured after 6 hrs post dose relative to control; type: functional
[36] = In vivo inhibition of LMP2 activity in BALB/c mouse brain at 40 mg/kg, iv measured after 24 hrs relative to control; type: functional
[37] = test system: HMC3; assay: Cytotoxicity against human HMC3 cells assessed as reduction in cell viability at 30 to 100 uM incubated for 96 hrs by CellTiter 96 Aqueous One Solution Cell Proliferation Assay; type: toxicity, cell-based; conditions: hmc3, 96 h, dose 30-100 µM

Ratio [2]: 2.62
Papp [3]: 6.62 10^-6 cm/s
CL free [6]: 72 mL/min/kg
Fu [9]: 0.45%
Vdss [10]: 2.572 L/kg
AUC [11]: 9689 ng·h/mL
C0 [12]: 31987 ng/mL
t1/2 [13]: 38.4 min
Cmax [16]: 3630 ng/mL
t1/2 [17]: 25.2 min
CL [18]: 70.88 mL/min/kg
inhibition [21]: Active
IC50 [22]: 87 nM
F [23]: 9.8%
Drug uptake [24]: Active
AUClast [28]: 3553 ng·h/mL
Papp [29]: 17.3 10^-6 cm/s
Drug uptake [31]: Not Active
Cmax [33]: 25900 ng/mL
Tmax [34]: 15 min
SMILES: CC(C)C[C@H](NC(=O)[C@@H]1COCCCCCC(=O)N2C[C@H](F)C[C@H]2C(=O)N1)C(=O)[C@@]1(C)CO1
Activity [1]: Non-Toxic
Activity [4]: Non-Toxic
inhibition in vivo at 100 mg/kg [5]: 65%
Activity [7]: Non-Toxic
Activity [8]: Non-Toxic
Activity [14]: Non-Toxic
Activity [15]: Non-Toxic
IC50 at 96 h [19]: > 100000 nM
Activity [20]: Non-Toxic
Activity [25]: Non-Toxic
inhibition in vivo at 150 mg/kg [26]: 90%
inhibition in vivo at 40 mg/kg [27]: 100%
Activity [30]: Non-Toxic
Activity [32]: Non-Toxic
inhibition in vivo at 150 mg/kg [35]: 21%
inhibition in vivo at 40 mg/kg [36]: 39%
Activity [37]: Non-Toxic
